molecular target: T1, G1 APOL1 (Homo sapiens, UniProt O14791, I384M/S342G); experiment: Acute APOL1 Thallium Assay with inducible stable clones of HEK 293 cells; type: cell-based; conditions: HEK 293 T-Rex cells expressing G1 APOL1; read-out: Thallium Assay (IC50)
T1 construct: expressed in transfected cells
T1 sequence (O14791 28-398 S342G/I384M): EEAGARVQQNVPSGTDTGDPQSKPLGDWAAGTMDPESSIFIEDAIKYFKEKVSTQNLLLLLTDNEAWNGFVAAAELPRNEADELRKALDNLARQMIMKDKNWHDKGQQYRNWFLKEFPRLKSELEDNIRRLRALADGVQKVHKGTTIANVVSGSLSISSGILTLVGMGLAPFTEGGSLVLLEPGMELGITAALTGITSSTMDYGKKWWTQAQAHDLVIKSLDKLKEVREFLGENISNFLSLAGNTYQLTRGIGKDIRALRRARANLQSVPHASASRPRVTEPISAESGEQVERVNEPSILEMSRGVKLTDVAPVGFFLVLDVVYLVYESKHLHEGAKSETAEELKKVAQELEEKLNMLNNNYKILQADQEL
Text: Acute APOL1 Thallium Assay with Inducible Stable Clones of HEK 293 Cells
Apolipoprotein L1 (APOL1) proteins form potassium-permeable cation pores in the plasma membrane. APOL1 risk variants (G1 and G2) induce greater potassium flux than G0 in HEK293 cells. This assay exploits the permeability of thallium (Tl+) through ligand-gated potassium channels. The dye produces a bright fluorescent signal upon binding to Tl+ conducted through potassium channels. The intensity of the Tl+ signal is proportional to the number of potassium channels in the open state. Therefore, it provides a functional indication of the potassium channel activities. During the initial dye-loading step, the Tl+ indicator dye as an acetoxymethyl (AM) ester enters the cells through passive diffusion. Cytoplasm esterases cleave the AM ester and relieve its active thallium-sensitive form. The cells are then stimulated with Tl+. The increase of fluorescence in the assay represents the influx of Tl+ into the cell specifically through the potassium channel (i.e. through APOL1 pores), providing a functional measurement of potassium channel/pore activity. The Thallium assay is conducted with cells expressing G1 APOL1.
APOL1 Cell Line (HEK T-Rex Stable Inducible Cell Line) • HEK T-Rex System • Tetracycline (Tet) inducible mammalian expression system. • Stably express the Tet repressor to regulate transcription. • Expression under the full-length CMV promoter. • APOL1 stable inducible cell line Clone used: G1 DC3.25
Tissue Culture Media • Cell Culture Medium • DMEM+10% FBS+P/S+5 μg/mL blasticidin+1 μg/mL puromycin. • 500 mL DMEM+55 mL FBS+5 mL P/S+280 μL blasticidin S HCl (10 mg/mL)+56 μL puromycin (10 mg/mL). • Cell Assay Medium • DMEM with 2% FBS+pen strep.
Instruments and Equipment • Nuaire cell culture hood, Cat. No. 540-600 • 37° C./5% CO2 incubator link to robotic arm, Liconic: STX110 • Molecular Devices FLIPR^Tetra High throughput cellular screening system, Cat. No. FT0324, Molecular Devices • ThermoFisher MultiDrop 384, Cat. No. 5840300 • Biotek Microfill, Cat. No. ASF1000A-4145 • BioRad TC10 cell counter, Cat. No. 145-0010 Assay Procedures
Cells Scaled Up from Frozen Vials • APOL1 G1 3.25 (HEK293 T-Rex) frozen vials: 5 million cells per vial • Step 1, Day 1: Defrost frozen vial into T-225. • Step 2, Day 5: (when 85% confluent): Split one T-225 at 3×10^6 cells per flask. • Step 3, Day 8: Splits cells to set up for the assay plates as described below.
T-Rex APOL1 HEK cells are split twice per week to keep the confluence state below 85% of the culture flask surface area. Cells can be kept until passage 25. • Cell Culture Medium • DMEM high glucose+10% FBS, +P/S, +5 μg/mL blasticidin, +1 μg/mL puromycin. • 500 mL DMEM, +55 mL FBS, +5 mL P/S, +280 μL blasicidin 10 mg/mL, +56 μL Puromycin 10 mg/mL. • Assay Media • Opti-MEM reduced serum medium from Invitrogen.
Preparation of Cell Assay Plates • Culture medium is removed from the x cm^2 T-flask by aspiration. • The cell monolayer is rinsed with PBS 1× at room temperature. PBS is removed by aspiration. • Cells are trypsinized using Trypsin. • The flasks are incubated at room temperature for 2-3 minutes. • Complete DMEM medium is then added. Cell suspension is then transferred to a 50 mL Falcon polypropylene tube. • Cells are then counted using a Biorad TC10 cell counter and the required amount of cells are centrifuged at 1200 RPM for 5 minutes. Required amount is 1.3×10^6 cells/mL APOL1 T-Rex HEK cells. • The pellet is suspended in the assay medium. • Using the MultiDrop, add 20 μL to each well (corresponds to 26000 cells total per well) of a 384-well black, transparent, flat bottom Poly-D coated plate. • Tetracycline as prepared in the following section is added to the cells before plating to induce APOL1 expression. • Plates are left at room temperature for 20 to 30 minutes before incubation at 37° C. and 5% CO2. […]

IC50	Compound
> 1 µM	Cn1nccc1NC(=O)[C@H]1C[C@@H](c2c(-c3ccc(F)cc3)[nH]c3c(F)cc(F)cc32)C1 [Compound 247]
> 1 µM	NC(=O)C(CO)NC(=O)[C@H]1C[C@@H](c2c(-c3ccc(F)cc3)[nH]c3c(F)cc(F)cc32)C1 (stereo partly drawn) [Compound 259]
0.25 to 1 µM	C[C@H](CO)N(C)C(=O)[C@H]1C[C@H](c2c(-c3ccc(F)cc3)[nH]c3c(F)cc(F)cc32)C1 [Compound 190]
> 1 µM	O=C(NC1(CO)CC1)[C@H]1C[C@@H](c2c(-c3ccc(F)cc3)[nH]c3c(F)cc(F)cc32)C1 [Compound 253]
> 1 µM	O=C(NCC1COC1)[C@H]1C[C@@H](c2c(-c3ccc(F)cc3)[nH]c3c(F)cc(F)cc32)C1 [Compound 248]
> 1 µM	O=C(N[C@H]1CCOC1)[C@H]1C[C@@H](c2c(-c3ccc(F)cc3)[nH]c3c(F)cc(F)cc32)C1 [Compound 246]
> 1 µM	O=C(NCCn1cccc1)[C@H]1C[C@@H](c2c(-c3ccc(F)cc3)[nH]c3c(F)cc(F)cc32)C1 [Compound 262]

same assay, conditions: Table 24, Compounds 287 to 465; read-out: Thallium Assay (IC50)

Compound	IC50
CN(CC1CC(c2c(-c3ccc(F)cc3)[nH]c3c(F)cc(F)cc23)C1)C(=O)NCc1cn(C)cn1 (stereo not drawn) [Compound 427, 1-((3-(5,7-difluoro-2-(4-fluorophenyl)-1H-indol-3-yl)cyclobutyl)methyl)-1-methyl-3-((1-methyl-1H-imidazol-4-yl)methyl)urea]	> 1 µM
Cc1nn(C)cc1CNC(=O)C1CC(Cc2c(-c3ccc(F)cc3)[nH]c3c(F)cc(F)cc23)C1 (stereo not drawn) [Compound 335]	> 1 µM
O=C(NC1(CO)CC(F)(F)C1)C1CC(Cc2c(-c3ccc(F)cc3)[nH]c3c(F)cc(F)cc23)C1 (stereo not drawn) [Compound 309]	> 1 µM
O=C(NCC1CCOC1)C1CC(Cc2c(-c3ccc(F)cc3)[nH]c3c(F)cc(F)cc23)C1 (stereo not drawn) [Compound 330]	> 1 µM
N#CC(CO)NC(=O)C1CC(Cc2c(-c3ccc(F)cc3)[nH]c3c(F)cc(F)cc23)C1 (stereo not drawn) [Compound 303]	> 1 µM
O=C(NC[C@H]1C[C@H](c2c(-c3ccc(F)cc3)[nH]c3c(F)cc(F)cc32)C1)N[C@@H](CO)C(F)(F)F [Compound 413]	> 1 µM
O=C(NC(CO)CO)N[C@H]1C[C@H](c2c(-c3ccc(F)cc3)[nH]c3c(F)cc(F)cc32)C1 [Compound 298]	> 1 µM
NC(=O)CN[C@H]1C[C@H](c2c(-c3ccc(F)cc3)[nH]c3c(F)cc(F)cc32)C1 [Compound 294]	> 1 µM
O=C(N[C@H]1CCOC1)O[C@H]1C[C@H](c2c(-c3ccc(F)cc3)[nH]c3c(F)cc(F)cc32)C1 [Compound 381]	> 1 µM
COC[C@H](C)NC(=O)O[C@H]1C[C@H](c2c(-c3ccc(F)cc3)[nH]c3c(F)cc(F)cc32)C1 [Compound 364]	> 1 µM
CC(=O)NCCNC(=O)C1CC(Cc2c(-c3ccc(F)cc3)[nH]c3c(F)cc(F)cc23)C1 (stereo not drawn) [Compound 320]	> 1 µM
O=C(NCc1ccco1)O[C@H]1C[C@H](c2c(-c3ccc(F)cc3)[nH]c3c(F)cc(F)cc32)C1 [Compound 379]	> 1 µM
O=C(NC[C@H]1C[C@H](c2c(-c3ccc(F)cc3)[nH]c3c(F)cc(F)cc32)C1)NC1(CO)CC(F)(F)C1 [Compound 400]	> 1 µM
O=C(NCC1CCNC1=O)NC[C@H]1C[C@H](c2c(-c3ccc(F)cc3)[nH]c3c(F)cc(F)cc32)C1 (stereo partly drawn) [Compound 417]	> 1 µM
CO[C@H]1C[C@@H](NC(=O)O[C@H]2C[C@H](c3c(-c4ccc(F)cc4)[nH]c4c(F)cc(F)cc43)C2)C1 [Compound 390]	> 1 µM
CC(C)(O)CCNC(=O)C1CC(Cc2c(-c3ccc(F)cc3)[nH]c3c(F)cc(F)cc23)C1 (stereo not drawn) [Compound 327]	> 1 µM
O=C(NC1(CCO)CC1)C1CC(Cc2c(-c3ccc(F)cc3)[nH]c3c(F)cc(F)cc23)C1 (stereo not drawn) [Compound 311]	> 1 µM

Results, then the molecule that gave them:

IC50	Compound
0.25 to 1 µM	COCC(C)NC(=O)O[C@H]1C[C@H](c2c(-c3ccc(F)cc3)[nH]c3c(F)cc(F)cc32)C1 (mixture of isomers) [Compound 360]
> 1 µM	O=C(N[C@H](CO)C(F)(F)F)O[C@H]1C[C@H](c2c(-c3ccc(F)cc3)[nH]c3c(F)cc(F)cc32)C1 [Compound 362]
0.25 to 1 µM	O=C(NCC(F)F)N1CC(c2c(-c3ccc(F)cc3)[nH]c3c(F)cc(F)cc23)C1 [Compound 465, 3-(5,7-difluoro-2-(4-fluorophenyl)-1H-indol-3-yl)-N-(2,2-difluoroethyl)azetidine-1-carboxamide]
> 1 µM	C[C@]1(NC(=O)NC[C@H]2C[C@H](c3c(-c4ccc(F)cc4)[nH]c4c(F)cc(F)cc43)C2)C[C@@H](O)C1 [Compound 408]
> 1 µM	O=C(Nc1c[nH][nH]c1=O)C1CC(Cc2c(-c3ccc(F)cc3)[nH]c3c(F)cc(F)cc23)C1 (stereo not drawn) [Compound 310]
> 1 µM	O=C(NC[C@H]1C[C@H](c2c(-c3ccc(F)cc3)[nH]c3c(F)cc(F)cc32)C1)NC1(CO)CCOC1 (stereo partly drawn) [Compound 425]
> 1 µM	O=C(NCc1cocn1)C1CC(Cc2c(-c3ccc(F)cc3)[nH]c3c(F)cc(F)cc23)C1 (stereo not drawn) [Compound 341]
> 1 µM	CC1(C)CC(NC(=O)NC[C@H]2C[C@H](c3c(-c4ccc(F)cc4)[nH]c4c(F)cc(F)cc43)C2)C(=O)O1 (stereo partly drawn) [Compound 403]
> 1 µM	CC1(O)CC(NC(=O)O[C@H]2C[C@H](c3c(-c4ccc(F)cc4)[nH]c4c(F)cc(F)cc43)C2)C1 (stereo partly drawn) [Compound 361]
> 1 µM	O=C(NC1CC(O)C1)O[C@H]1C[C@H](c2c(-c3ccc(F)cc3)[nH]c3c(F)cc(F)cc32)C1 (stereo partly drawn) [Compound 383]
> 1 µM	O=C(NCC1(CO)CC1)C1CC(Cc2c(-c3ccc(F)cc3)[nH]c3c(F)cc(F)cc23)C1 (stereo not drawn) [Compound 323]
> 1 µM	O=C(NCc1ccc[nH]c1=O)C1CC(Cc2c(-c3ccc(F)cc3)[nH]c3c(F)cc(F)cc23)C1 (stereo not drawn) [Compound 313]
0.25 to 1 µM	NC(=O)CNC(=O)O[C@H]1C[C@H](c2c(-c3ccc(F)cc3)[nH]c3c(F)cc(F)cc32)C1 [Compound 355]
0.25 to 1 µM	CC(C)(CO)NC(=O)O[C@H]1C[C@H](c2c(-c3ccc(F)cc3)[nH]c3c(F)cc(F)cc32)C1 [Compound 352]
0.25 to 1 µM	CNC(=O)NC[C@H]1C[C@H](c2c(-c3ccc(F)cc3)[nH]c3c(F)cc(F)cc32)C1 [Compound 391, 1-(((1r,3r)-3-(5,7-difluoro-2-(4-fluorophenyl)-1H-indol-3-yl)cyclobutyl)methyl)-3-methylurea]
0.25 to 1 µM	C[C@H](CO)NC(=O)O[C@H]1C[C@H](c2c(-c3ccc(F)cc3)[nH]c3c(F)cc(F)cc32)C1 [Compound 354]
0.25 to 1 µM	CN(C)C(=O)CNCC1CC(c2c(-c3ccc(F)cc3)[nH]c3c(F)cc(F)cc23)C1 (stereo not drawn) [Compound 435]
0.25 to 1 µM	O=C(CN[C@H]1C[C@H](c2c(-c3ccc(F)cc3)[nH]c3c(F)cc(F)cc32)C1)NCO [Compound 289]

From patent US12116343B2, “Inhibitors of APOL1 and methods of using same” (Vertex Pharmaceuticals Incorporated, priority 2020, dated 2024)
